Experiment [1] relates to acetic acid-induced writhing. The experiment in a line: inhibition of acetic acid-induced writhing in the rat (RW). The following applies: oral; for ED50: Rattus norvegicus. The class given is in vivo, rat (male Sprague Dawley). Here is the method: (§1) In order to further detail the analgesic profiles of the compounds of the invention, their activities in the inhibition of acetic acid-induced writhing assay in the rat, the inhibition of cyclooxygenase assay and a modification of the Randall-Selitto analgesic test were also determined The test procedure used to determine the inhibition of acetic acid-inducedwrithing in the rat is described as follows.
Male Sprague Dawley rats (Taconic Farms) weighing between 160 and 200g were treated in a random and blind fashion with 1% gum tragacanth vehicle or test agent suspended or dissolved in 1% gum tragacanth. Rats were individually housed in plastic cages (28×18×12 cm) throughout the experiment. Forty-five minutes after drug treatment, 0.5 ml of 9% (w/v) acetic acid was administered intraperitoneally, and animals were returned to their cages for 10 minutes. Writhing is not normally seen during this 10 minute period. Each animal was then observed for a writhing response during a subsequent 10 minute interval (55-65 minutes post-drug treatment). A writhing response was defined as arching of the back with extension of the hindlimbs and contraction of abdominal muscles. […] Data were expressed as percent inhibition of the mean number of writhes in the vehicle treated control group. Data were evaluated for statistical significance by Dunnett's test, and ED50 's for inhibition of acetic acid-induced writhing were determined by the graded dose-response analysis of Tallarida and Murray, Manual of Pharmacologic Calculations with Computer Programs, Springer Verlag, New York (1981).
(§2) In the acetylcholine-induced abdominal constriction test, the test compounds were administered either as suspensions in gum tragacanth (GT) or as aqueous solutions prepared by addition of just sufficient dilute aqueous methanesulfonic acid (MS) or dilute aqueous lactic acid (LA) to dissolve the compound The compounds are identified by the example number above where their preparations are described All data in the anti-bradykinin, rat writhing and Randall-Selitto tests were obtained on oral administration.

In experiment [2] the test system is brewers' yeast-induced hyperalgesia. The experiment in a line: modification of the Randall-Selitto analgesic (paw pressure) test (R-S). Format: in vivo, rat (Sprague-Dawley). Conditions: Rattus norvegicus; oral; read-out: R-S minimum effective dose, MED. Here is the method:
as §1
The modification of the Randall-Selitto analgesic test procedure used is described as follows:
Female Sprague-Dawley rats, weighing 60 to 95 grams, were routinely used. […] The rats were housed 10 per cage with food and water available ad libitum.
The Randall-Selitto Test device used was a UGO Basile Analgesy Meter (catalog no. 7200), with the flat-topped plinth on the bottom, acting as a platform upon which the hind paw of the rat was placed and the round-pointed pusher oriented downward. […]
Animals were given the test drug, p.o., two hours after the sub-plantar injection, four doses customarily being given, along with vehicle control and a positive control (Zomepirac). […] Treatments were assigned in such a way that both the range and the means of the baseline readings were as nearly equal as possible for all treatments. […]
Results were analyzed with the Student's t-test. […]

Experiment [3] has as its system bradykinin. The experiment in a line: anti-bradykinin test (BDK/BRKD). Format: in vivo. The following applies: oral. The source says: The test procedures used to determine the analgesic activities of the compounds have been described in detail in the prior art and are as follows: The acetylcholine-induced abdominal constriction test, which is a primary analgesic screening test designed to measure the ability of a test agent to suppress acetylcholine-induced abdominal constriction in mice, described by Collier et al., Brit. J. Pharmacol. Chemotherap. 32, 295 (1968); a modification of the anti-bradykinin test, which is also a primary analgesic screening procedure, described by Berkowitz et al., J. Pharmacol. Exptl Therap. 177, 500-508 (1971), Blane et al., J. Pharm. Pharmacol 19, 367-373 (1967), Botha et al., Eur. J. Pharmacol. 6, 312-321 (1969) and Deffenu et al., J. Pharm. Pharmacol. 18, 135 (1966); the rat paw flexion test, described by Kuzuna et al., Chem. Pharm. Bull., 23, 1184-1191 (1975), Winter et al., J. Pharm. Exptl. Therap., 211, 678-685 (1979) and Capetola et al., J. Pharm. Exptl. Therap. 214, 16-23 (1980); and the mouse vas deferens adrenergic transmission test, described by Henderson et al., Brit. J. Pharmacol., 46, 764-766 (1972). […]

The subject of experiment [4] is acetylcholine-induced abdominal constriction. The experiment in a line: acetylcholine-induced abdominal constriction test (ACH). The class given is in vivo, mice. Conditions: for ED50: Mus musculus.
Text: (§3) The test procedures used to determine the analgesic activities of the compounds have been described in detail in the prior art and are as follows: The acetylcholine-induced abdominal constriction test, which is a primary analgesic screening test designed to measure the ability of a test agent to suppress acetylcholine-induced abdominal constriction in mice, described by Collier et al., Brit. J. Pharmacol. Chemotherap. 32, 295 (1968); a modification of the anti-bradykinin test, which is also a primary analgesic screening procedure, described by Berkowitz et al., J. Pharmacol. Exptl Therap. 177, 500-508 (1971), Blane et al., J. Pharm. Pharmacol 19, 367-373 (1967), Botha et al., Eur. J. Pharmacol. 6, 312-321 (1969) and Deffenu et al., J. Pharm. Pharmacol. 18, 135 (1966); the rat paw flexion test, described by Kuzuna et al., Chem. Pharm. Bull., 23, 1184-1191 (1975), Winter et al., J. Pharm. Exptl. Therap., 211, 678-685 (1979) and Capetola et al., J. Pharm. Exptl. Therap. 214, 16-23 (1980); and the mouse vas deferens adrenergic transmission test, described by Henderson et al., Brit. J. Pharmacol., 46, 764-766 (1972).
as §2

The subject of experiment [5] is cyclooxygenase. The experiment in a line: inhibition of cyclooxygenase assay (CO). The class given is biochemical, mice. Here is the method: as §1
The test procedure used to determine cyclooxygenase inhibitory activity is described as follows.
Male mice were decapitated and stomach and brain (cerebral cortex, hypothalamus and medulla) were rapidly dissected over ice. The brains were homogenized in 3 volumes of ice cold 0.1 M potassium phosphate buffer, pH 7.4 containing 10 mM EDTA and 1% BSA (w/v). The homogenate was centrifuged at 10,000 xg for 15 minutes. The resulting supernatant was decanted and centrifuged at 100,000 xg for 60 minutes yielding a crude microsomal pellet. The pellet was washed superficially three times in 3 volumes of 0.1 M potassium phosphate buffer before final resuspension in 1.5 volumes of 0.1 M potassium phosphate buffer containing 1 mM norepinephrine and 1 mM reduced glutathione. The microsomes (50 μl) were preincubated with 50 μl of indomethacin (0.3 μM), test compound or norepinephrine/glutathione-containing buffer for 5 minutes at room temperature. The enzyme reaction was initiated by the addition of 50 μl of ^14 C arachidonic acid to yield a final concentration of 10 μM. After a further incubation of 15 minutes at 37° C., the reaction was stopped by the addition of 50 μl of 4M formic acid. Blank values were determined by using microsomes boiled for 5 minutes but otherwise were treated similarly. The ^14 C-labelled material was extracted 3 times with 0.5 ml of ethyl acetate with intermediate centrifugations at 500 xg for 5 minutes to clarify the aqueous and organic phases. This procedure extracted >95% of the ^14 C-labelled materials. The ethyl acetate washes were added to tubes containing 5 μg each of PGE2, PGF2, PGD2, and 10 μg PGI2 in 25 μl of ethanol. The mixture was evaporated to dryness under nitrogen and the residue dissolved in 150 μl of chloroform:methanol (2:1). This solution was spotted on 5×20 cm silica gel plates and chromatographed with an ethyl acetate, trimethylpentane, acetic acid and water mixture (110:50:20:100 by volume) prepared by shaking the solvents and separating and discarding the organic phase. The prostaglandins were visualized in iodine vapor, the various spots were scraped, and the ^14 C-labelled prostaglandins quantitated by liquid scintillation spectroscopy in 10 ml of BIOFLUOR® or FLUORODYNE®.
as §2

Experiment [6] relates to mouse vas deferens. The experiment in a line: mouse vas deferens adrenergic transmission test (MVD). The following applies: for IC50: concentration producing 50% of the maximum response.
Text: as §3
As before, the compounds are identified by the example number above where their preparations are described.

[7] abbreviates: po, aqueous methanesulfonic acid (MS).
The mark [8] stands for this setting: p.o., dose level 100, suspension in gum tragacanth (GT).
The mark [9] stands for this setting: 30 μM, negative values = increases over controls, not demonstrated to differ significantly.
[10] abbreviates: p.o., dose level 100, aqueous methanesulfonic acid (MS).

Molecules are shown by their SMILES. Some results are limits rather than exact numbers.

`Cc1c(C(=O)c2cccc3ccccc23)c2cccc3c2n1C(CN1CCOCC1)CO3` (stereo not shown) [Example 1B, 3-(4-morpholinylmethyl)-5-methyl-6-(1-naphthylcarbonyl)-2,3-dihydropyrrolo1,2,3-de]-1,4-benzoxazine methanesulfonate]: the ED50 (as a rule, the dose at which the effect has come halfway, by size or by number of responders) in experiment [1] turned out to be 8.6 mg/kg; in experiment [3], 35 mg/kg; in experiment [4] (iv), 0.25 mg/kg; in experiment [4] (setting [7]) it was 33 mg/kg. For the same compound, in experiment [2], the minimal effective dose came out at 0.003 mg/kg. For the same compound, the ACH percent inhibition is given as 30% in experiment [4] (setting [8]) and 73% in experiment [4] (s.c., dose level 100). Also, in experiment [5] (setting [9]), the “CO percent inhibition (% I)” value is reported as -35%.
For `Cc1c(C(=O)c2cccc3ccccc23)c2cccc3c2n1C(CN1CCOCC1)CO3` (single isomer, unassigned; (+)) [2B(d), (+)-3-(4-morpholinylmethyl)-5-methyl-6-(1-naphthylcarbonyl)-2,3-dihydropyrrolo1,2,3-de]-1,4-benzoxazine methanesulfonate], the IC50 (commonly the concentration that inhibits the measured activity by half) in experiment [6] was 0.43 ± 0.1 nM. Further, the figures for the ED50 in experiment [1], in experiment [4] (iv) and in experiment [4] (setting [7]) were 7.5 mg/kg, 0.027 mg/kg and 33 mg/kg, respectively. Besides, in experiment [5] (100 μM), the “CO percent inhibition (% I)” value was 9%.
Consider `COc1ccc(C(=O)c2c(C)n3c4c(cccc24)OCC3CN2CCOCC2)cc1` (stereo not shown) [Example 1A, 3-(4-morpholinylmethyl)-5-methyl-6-(4-methoxybenzoyl)-2,3-dihydropyrrolo[1,2,3-de]-1,4-benzoxazine], for which 123 ± 13 nM corresponded to half-maximal inhibition in experiment [6] (IC50). Further, the results for the RW percent inhibition in experiment [1] (dose level 100) and in experiment [1] (dose level 300) were 50.6% and 23%, respectively. Further, the BRKD percent inhibition in experiment [3] (dose level 300) came out at 0%. In experiment [4] (iv), this compound registered an ED50 of 3.4 mg/kg. The ACH percent inhibition turned out to be 30% in experiment [4] (setting [10]) and 20% in experiment [4] (setting [8]). Also, in experiment [5] (setting [9]), the “CO percent inhibition (% I)” value came out at 19%.
`CS(=O)(=O)O.Cc1c(C(=O)c2cccc3ccccc23)c2cccc3c2n1C(CN1CCOCC1)CO3` (single isomer, unassigned; (-)) [2B(1), (-)-3-(4-morpholinylmethyl)-5-methyl-6-(1-naphthylcarbonyl)-2,3-dihydropyrrolo[1,2,3-de]-1,4-benzoxazine methanesulfonate] showed an MVD percent inhibition in experiment [6] (10 μM) of 37%. In addition, the half-maximal inhibitory concentration (IC50) in experiment [6] (methanesulfonate) was more than 10000 nM. In experiment [1] (dose level 100), this compound yielded an RW percent inhibition of 12%. Also, the ACH percent inhibition in experiment [4] (i.v., dose level 0.3) is listed as 20%; in experiment [4] (i.v., dose level 1) it was 40%; in experiment [4] (i.v., dose level 3) it was 10%; in experiment [4] (i.v., dose level 5.5), 30%; in experiment [4] (p.o., dose level 10, aqueous methanesulfonic acid (MS)), 10%; in experiment [4] (p.o., dose level 30, aqueous methanesulfonic acid (MS)), 10%. Besides, the ACH percent inhibition in experiment [4] (setting [10]) was 10%; in experiment [4] (p.o., dose level 173, aqueous methanesulfonic acid (MS)), 30%. The “CO percent inhibition (% I)” value in experiment [5] (100 μM) is 10.4%.
In turn, `COc1ccc(C(=O)c2cn3c4c(cccc24)OCC3CN2CCOCC2)cc1` (stereo not shown) [Example 2C, 3-(4-morpholinylmethyl)-6-(4-methoxybenzoyl)-2,3-dihydropyrrolo[1,2,3-de]-1,4-benzoxazine] showed a 50% inhibitory concentration (IC50) in experiment [6] of 44 ± 9.8 nM. This compound registered a 50% effective dose (ED50) in experiment [4] (iv) of 3.9 mg/kg. In experiment [4] (setting [8]), the ACH percent inhibition is 30%. The “CO percent inhibition (% I)” value in experiment [5] (setting [9]) is listed as -8.9%.
The compound `Cc1c(C(=O)c2ccc3ncccc3c2)c2cccc3c2n1C(CN1CCOCC1)CO3` (stereo not shown) [Example 1C] displayed an IC50 in experiment [6] of 21 ± 0.65 nM. The ED50 came out at 3.5 mg/kg in experiment [1]; 1.8 mg/kg in experiment [4] (iv); 27 mg/kg in experiment [4] (po, vehicle not given). In experiment [4] (s.c., dose level 100, suspension in gum tragacanth (GT)), this compound registered an ACH percent inhibition of 0%. Also, the “CO percent inhibition (% I)” value in experiment [5] (setting [9]) is given as -26.2%.

Source of the values: US4939138A, “2- and 3-aminomethyl-6-arylcarbonyl-2,3-dihydropyrrolo(1,2,3-DE)-1,4-benzoxazin es” (Sterling Drug Inc., priority 1989, dated 1990).
